Data as given in patent US4740505A, “Pyridazinyloxy (or thio) phenyl phosphates” (priority 1985, dated 1988).
Like-named read-outs stand apart in the source and are kept apart here.

Key:
Spodoptera litura = test: Effectiveness on Spodoptera litura (mortality of 3rd instar larvae on sprayed soybean leaves); format: in vivo
Protocol: Effectiveness of Spondoptera litura
Each of the test compounds listed in the following table is processed into an emulsifiable concentrate in accordance with the formulation of Example 6. The emulsifiable concentrate is diluted with water (Dyne®, a spreading agent produced by Takeda Chemical Ind. Ltd., as diluted 3,000-fold) to prepare a 100 ppm aqueous solution.
Using a spray gun (nozzle pressure of 1 kg/cm^2 gauge), 20 ml of the aqueous 100 ppm solution is sprayed over soybean seedlings in a spraying chamber (on 10th day after germination) which have been raised in jiffy pots (6 cm in diameter). Two main leaves are respectively cut off from the seedlings 2 hours and 6 days after the spraying. Each of the leaves is put into an ice cream cup (diameter: 6 cm, depth: 4 cm), and 10 larvae of Spodoptera litura at the 3rd instar are put into each of the cups. The cups are left in a room at 25° C.; after 48 hours, dead larvae are counted. The test is repeated two times. The results are shown in terms of mortality (%) in Table 6. [formula]
The following compounds are used for controls.
The same compounds are used for controls also in the following Test Examples.

Tetranychus urticae = test: Effectiveness on Tetranychus urticae (rating of effects on kidney bean seedlings); format: in vivo; conditions: 500 ppm, 20 ml, rating based on percent decrease; for Rating of effect Day-2: 2nd day after treatment; for Rating of effect Day-7: 7th day after treatment
Protocol: Effectiveness on Tetranychus urticae
Each of the compounds listed in the following table is processed into an emulsifiable concentrate in accordance with the formulation of Example 6. The emulsifiable concentrate is diluted with water (Dyne®, a spreading agent produced by Takeda Chemical Ind. Ltd., as diluted 3,000-fold) to prepare a 500 ppm aqueous solution. Ten female adult of Tetranychus urticae are put into each kidney been seedling raised in a jiffy pot (6 cm in diameter), and left in a glass house at 28° C. for 24 hours. Each pot is taken out of the glass house; 20 ml of the aqueous solution as prepared above is spread over each kidney bean seedling. The jiffy pots are laid in the glass house again. Larvae and adult which are alive on the leaves are counted at the 2nd and 7th days after the spreading treatment. The test is repeated two times. The degrees are determined on the basis of percent decrease.

[1] = Toxicological test: oral acute toxicity in mice; set-up: species or system mice (ddY-SLC strained male); conditions: mouse, in vivo, five-week aged ddY-SLC male mice
[2] = 100 ppm spray, leaves cut 6 days after spraying, dead larvae counted after 48 hours, 25° C., read-out: Mortality 6th day after spraying
[3] = 48 h, read-out: Mortality 2 hours after spraying
[4] = 100 ppm spray, leaves cut 2 hours after spraying, dead larvae counted after 48 hours, 25° C., read-out: Mortality 2 hours after spraying

SMILES	mortality at 100 ppm (Spodoptera litura; [2]) [%]	mortality at 100 ppm (Spodoptera litura; [3]) [%]	Rating of effect Day-2 (Tetranychus urticae)	Rating of effect Day-7 (Tetranychus urticae)	LD50 [1] [mg/kg]	mortality at 100 ppm (Spodoptera litura; 48 h, read-out: Mortality 6th day after spraying) [%]	mortality at 100 ppm (Spodoptera litura; [4]) [%]
CCCSP(=O)(OCC)Oc1ccc(Oc2ccc(Cl)nn2)cc1 (stereo not drawn) [Compound No. 2, O-Ethyl-S-n-propyl-O-[4-(3-chloropyridazinyl-6-oxy)phenyl]phosphorothioate]	100	100	3 (≥90)	3 (≥90)			
CCCSP(=S)(OCC)Oc1ccc(Oc2ccc(Cl)nn2)cc1 (stereo not drawn) [Compound No. 3]	90	100	3 (≥90)	3 (≥90)	~300		
CCCSP(=O)(OCC)Oc1cccc(Oc2ccc(N(C)C)nn2)c1 (stereo not drawn) [Compound No. 21, O-Ethyl-S-n-propyl-O-[3-(3-dimethylaminopyridazinyl-6-oxy)phenyl]phosphorothioate]	100	100	3 (≥90)	3 (≥90)			
CCC(C)SP(=O)(OC)Oc1ccccc1Oc1ccc(Cl)nn1 (stereo not drawn) [Compound No. 27, O-Methyl-S-sec-butyl-O-[2-(3-chloropyridazinyl-6-oxy)phenyl]phosphorothioate]	100	100	3 (≥90)	3 (≥90)			
CCCSP(=O)(OCC)Oc1ccccc1Oc1ccc(Cl)nn1 (stereo not drawn) [Compound No. 29, O-Ethyl-S-n-propyl-O-[2-(3-chloropyridazinyl-6-oxy)phenyl]phosphorothioate]		100	3 (≥90)	3 (≥90)		90	
CCCSP(=S)(OCC)Oc1ccccc1Sc1ccc(Cl)nn1 (stereo not drawn) [Compound No. 32, O-Ethyl-S-n-propyl-O-[2-(3-chloropyridazinyl-6-thio)phenyl]phosphorodithioate]			3 (≥90)	3 (≥90)	> 300		
COP(=S)(OC)Oc1ccc([N+](=O)[O-])c(C)c1 [Fenitrothion, reference compound]	0		3 (≥90)	0 (≤20)			80
CCCSP(=S)(OCC)Oc1ccc(Cl)cc1Cl (stereo not drawn) [Prothiophos, reference compound]	10		3 (≥90)	0 (≤20)			100
CCCSP(=O)(OCC)Oc1ccc(Oc2cccnn2)cc1 (stereo not drawn) [compound 1]	90	100	3 (≥90)	3 (≥90)			
CCCSP(=S)(OCC)Oc1ccc(Sc2ccc(Cl)nn2)cc1 (stereo not drawn) [compound 5]			3 (≥90)	3 (≥90)	> 300		
CCCSP(=O)(OCC)Oc1ccc(Oc2ccc(N(C)C)nn2)cc1 (stereo not drawn) [compound 6]	90	100					
CCCSP(=S)(OCC)Oc1ccc(Oc2ccc(N(C)C)nn2)cc1 (stereo not drawn) [compound 7]					> 300		
CCCSP(=O)(OCC)Oc1ccc(Sc2ccc(N(C)C)nn2)cc1 (stereo not drawn) [compound 8]			3 (≥90)	3 (≥90)	~300		
CCCSP(=S)(OCC)Oc1ccc(Sc2ccc(N(C)C)nn2)cc1 (stereo not drawn) [compound 9]			3 (≥90)	3 (≥90)	> 300		
CCCSP(=S)(OCC)Oc1ccc(Oc2ccc(NC(C)CC)nn2)cc1 (stereo not drawn) [compound 10]					> 300		
CCCSP(=O)(OCC)Oc1ccc(Sc2ccc(NC(C)CC)nn2)cc1 (stereo not drawn) [compound 11]					> 300		

SMILES	mortality at 100 ppm (Spodoptera litura; [2]) [%]	mortality at 100 ppm (Spodoptera litura; [3]) [%]	Rating of effect Day-2 (Tetranychus urticae)	Rating of effect Day-7 (Tetranychus urticae)	LD50 [1] [mg/kg]	mortality at 100 ppm (Spodoptera litura; 48 h, read-out: Mortality 6th day after spraying) [%]	mortality at 100 ppm (Spodoptera litura; [4]) [%]
CCCSP(=S)(OCC)Oc1ccc(Sc2ccc(NC(C)CC)nn2)cc1 (stereo not drawn) [compound 12]					> 300		
CCCSP(=O)(OCC)Oc1ccc(Oc2ccc(N(C(C)=O)C(C)CC)nn2)cc1 (stereo not drawn) [compound 13]			3 (≥90)	3 (≥90)			
CCC(C)SP(=O)(OC)Oc1ccc(Oc2ccc(Cl)nn2)c(C)c1 (stereo not drawn) [compound 14]			3 (≥90)	3 (≥90)			
CCCSP(=O)(OCC)Oc1ccc(Oc2ccc(Cl)nn2)c(C)c1 (stereo not drawn) [compound 15]	100	100	3 (≥90)	3 (≥90)			
CCCSP(=O)(OCC)Oc1cccc(Oc2cccnn2)c1 (stereo not drawn) [compound 17]	100	100	3 (≥90)	3 (≥90)			
CCCSP(=O)(OCC)Oc1cccc(Oc2ccc(NC(C)CC)nn2)c1 (stereo not drawn) [compound 22]	100	100					
CCC(C)SP(=O)(OC)Oc1ccccc1Sc1ccc(Cl)nn1 (stereo not drawn) [compound 28]	95	100	3 (≥90)	3 (≥90)			
CCCSP(=O)(OCC)Oc1ccccc1Sc1ccc(Cl)nn1 (stereo not drawn) [compound 31]			3 (≥90)	3 (≥90)	> 300		
CCOP(=O)(Oc1ccccc1Oc1ccc(Cl)nn1)SC(C)C (stereo not drawn) [compound 33]					> 300		
CCOP(=O)(Oc1ccccc1Oc1ccc(Cl)nn1)SC(C)CC (stereo not drawn) [compound 36]	100	100					
CCCSP(=O)(OCC)Oc1ccccc1Oc1ccc(C)nn1 (stereo not drawn) [compound 37]			3 (≥90)	3 (≥90)			
CCCSP(=O)(OCC)Oc1ccccc1Oc1ccc(N)nn1 (stereo not drawn) [compound 43]			3 (≥90)	3 (≥90)			
CCCSP(=S)(OCC)Oc1ccccc1Oc1ccc(N)nn1 (stereo not drawn) [compound 44]			3 (≥90)	3 (≥90)	> 300		
CCCSP(=O)(OCC)Oc1ccccc1Sc1ccc(N(C)C)nn1 (stereo not drawn) [compound 45]			3 (≥90)	3 (≥90)			
CCCSP(=S)(OCC)Oc1ccccc1Sc1ccc(NC(C)CC)nn1 (stereo not drawn) [compound 46]			3 (≥90)	3 (≥90)	> 300		
